Test results as given in patent US20240381872A1, “SUBSTITUTED 2,3-DIHYDRO[1,3]THIAZOLO[4,5-B]PYRIDINES, SALTS THEREOF AND THEIR USE AS HERBICIDALLY ACTIVE SUBSTANCES” (BAYER AKTIENGESELLSCHAFT, priority 2021, published 2024).

Tests used:
Format in all cases: in vivo
Oryza sativa (ORYZA) = assay: Post-emergence effects on crop plants, section F (Table F3); settings: Oryza sativa, 504 h, read-out: post-emergence activity against ORYZA in %; for percent crop plant damage at 80 g/ha: application rate 80 g/ha; for percent crop plant damage at 320 g/ha: application rate 320 g/ha
From the text: (§1) Seeds of mono- and dicotyledonous weed plants and crop plants were sown, in plastic or organic planting pots, in sandy loam, covered with soil and grown in a greenhouse under controlled growth conditions. 2 to 3 weeks after sowing, the test plants were sprayed in the single-leaf stage. The compounds according to the invention, formulated in form of wettable powders (WP) or as emulsifiable concentrates (EC), were sprayed onto the green plant parts as aqueous suspension or emulsion, with the addition of 0.5% of an additive, at an application rate of 600 l of water/ha (converted). The test plants were placed in the greenhouse for ca. 3 weeks under optimum growth conditions, and then the effect of the preparations was assessed visually in comparison with untreated controls (herbicidal effect in percent (%): 100% effect=plants have died off, 0% effect=as control plants). Tables F1 to F4 below show the effects of selected compounds of the general formula (I) according to Table 1 on various crop plants and an application rate corresponding to 320 g/ha or below obtained by the experimental procedure mentioned above.

Stellaria media (STEME) = assay: Herbicidal post-emergence action, section B (Table B9); settings: Stellaria media, post-emergence, 504 h, visual rating about 3 weeks after treatment vs untreated controls, read-out: post-emergence activity against STEME in %; for pest or weed control at 1280 g/ha: application rate 1280 g/ha; for pest or weed control at 320 g/ha: application rate 320 g/ha
In short: (§2)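 Visual percent control about 3 weeks post-spray, relative to untreated plants. Application was to foliage at the one-leaf stage (2 to 3 weeks after sowing in sandy loam), using WP or EC formulations in water with 0.5% additive at 600 liters per hectare.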

Poa annua (POAAN) [1] = assay: Herbicidal post-emergence action, section B (Table B7); settings: Poa annua, post-emergence, 504 h, visual rating about 3 weeks after treatment vs untreated controls, read-out: post-emergence activity against POAAN in %; for pest or weed control at 320 g/ha: application rate 320 g/ha
In short: as §2

Veronica persica (VERPE) [2] = assay: Herbicidal pre-emergence action, section A (Table A10); settings: Veronica persica, 504 h, read-out: pre-emergence activity against VERPE in %; for pest or weed control at 320 g/ha: application rate 320 g/ha; for pest or weed control at 1280 g/ha: application rate 1280 g/ha
In short: (§3)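 Compounds are applied pre-emergence to the soil covering freshly sown seeds in sandy loam, as WP or EC in water with 0.5% additive at a spray volume of 600 l/ha. Plants grow in the greenhouse, and percent damage is rated visually after roughly 3 weeks relative to untreated controls.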

[3] = test system: Amaranthus retroflexus (AMARE); assay: Herbicidal post-emergence action, section B (Table B11); settings: Amaranthus retroflexus, post-emergence, 504 h, visual rating about 3 weeks after treatment vs untreated controls, read-out: post-emergence activity against AMARE in %; for pest or weed control at 320 g/ha: application rate 320 g/ha
In short: as §2

Veronica persica (VERPE) [4] = assay: Herbicidal post-emergence action, section E (Table E9); settings: Veronica persica, 504 h, visual assessment ca. 3 weeks after spraying, read-out: post-emergence activity against VERPE in %; for pest or weed control at 320 g/ha: application rate 320 g/ha
From the text: as §1, with “plants).” for “plants). Tables F1 to F4 below show the effects of selected compounds of the general formula (I) according to Table 1 on various crop plants and an application rate corresponding to 320 g/ha or below obtained by the experimental procedure mentioned above.”

Poa annua (POAAN) [5] = assay: Herbicidal pre-emergence action, section A (Table A7); settings: Poa annua, pre-emergence, 504 h, visual grading after ca. 3 weeks vs untreated controls, read-out: pre-emergence activity against POAAN in %; for pest or weed control at 320 g/ha: application rate 320 g/ha; for pest or weed control at 1280 g/ha: application rate 1280 g/ha
In short: as §3

[6] = test system: Amaranthus retroflexus (AMARE); assay: Herbicidal pre-emergence action, section C (Table C11); settings: Amaranthus retroflexus, pre-emergence, 504 h, visual grading after ca. 3 weeks, read-out: pre-emergence activity against AMARE in %; for pest or weed control at 80 g/ha: application rate 80 g/ha; for pest or weed control at 320 g/ha: application rate 320 g/ha
In short: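 Pre-emergence, sandy loam. WP/EC formulations applied to covering soil surface, aqueous, + 0.5% additive, 600 l water/ha. Greenhouse, optimum growth. Visual % damage vs untreated, ca. 3 wk.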

[7] = test system: Digitaria sanguinalis (DIGSA); assay: Herbicidal post-emergence action, section B (Table B12); settings: Digitaria sanguinalis, post-emergence, 504 h; application rate 1280 g/ha; visual rating about 3 weeks after treatment vs untreated controls; read-out: post-emergence activity against DIGSA in %
In short: as §2

[8] = test system: Abutilon theophrasti (ABUTH); assay: Herbicidal post-emergence action, section B (Table B1); settings: Abutilon theophrasti, 504 h, application rate 1280 g/ha, rated visually after about 3 weeks, read-out: post-emergence activity against ABUTH in %
In short: as §2

[9] = test system: Abutilon theophrasti (ABUTH); assay: Herbicidal post-emergence action, section E (Table E1); settings: Abutilon theophrasti, post-emergence, 504 h; application rate 80 g/ha; assessed visually after ca. 3 weeks; read-out: post-emergence activity against ABUTH in %
From the text: as §1, with “plants).” for “plants). Tables F1 to F4 below show the effects of selected compounds of the general formula (I) according to Table 1 on various crop plants and an application rate corresponding to 320 g/ha or below obtained by the experimental procedure mentioned above.”

SMILES	percent crop plant damage at 80 g/ha (Oryza sativa (ORYZA)) [%]	pest or weed control at 1280 g/ha (Stellaria media (STEME)) [%]	pest or weed control at 320 g/ha (Poa annua (POAAN) [1]) [%]	pest or weed control at 320 g/ha (Veronica persica (VERPE) [2]) [%]	pest or weed control at 320 g/ha (Veronica persica (VERPE) [4]) [%]	pest or weed control at 80 g/ha [6] [%]	pest or weed control at 1280 g/ha [7] [%]	pest or weed control at 320 g/ha [3] [%]	percent crop plant damage at 320 g/ha (Oryza sativa (ORYZA)) [%]	further results
CCS(=O)(=O)N1C[S+]([O-])c2cc(C)c(-c3ccccc3C)nc21 (stereo not shown) [Example I-074]	0	90	90	90	90	90	90	–	–	pest or weed control at 1280 g/ha ([3]; application rate 1280 g/ha): 90%; pest or weed control at 320 g/ha (Poa annua (POAAN) [5]): 100%
Cc1cc2c(nc1-c1cccc(F)c1F)NCS2 [Example I-029, 5-(2,3-difluorophenyl)-6-methyl-2,3-dihydro[1,3]thiazolo[4,5-b]pyridine]	0	–	–	–	–	80	–	90	–	pest or weed control at 320 g/ha (Stellaria media (STEME)): 90%; pest or weed control at 1280 g/ha [8]: 90%; pest or weed control at 1280 g/ha (Poa annua (POAAN) [1]; application rate 1280 g/ha): 90%; pest or weed control at 1280 g/ha (Veronica persica (VERPE) [2]): 90%; pest or weed control at 1280 g/ha (Poa annua (POAAN) [5]): 100%
CC(=O)N1CSc2cc(Br)c(-c3ccccc3Cl)nc21 [Example I-055, 1-[6-bromo-5-(2-chlorophenyl)[1,3]thiazolo[4,5-b]pyridin-3(2H)-yl]ethanone]	–	90	–	90	–	90	90	90	0	pest or weed control at 320 g/ha (Poa annua (POAAN) [5]): 100%
Clc1ccccc1-c1nc2c(cc1Br)SCN2 [Example I-041, 6-bromo-5-(2-chlorophenyl)-2,3-dihydro[1,3]thiazolo[4,5-b]pyridine]	–	–	90	90	–	90	–	90	0	pest or weed control at 320 g/ha (Stellaria media (STEME)): 90%; pest or weed control at 1280 g/ha [8]: 90%; pest or weed control at 1280 g/ha (Poa annua (POAAN) [5]): 100%
CCOCCS(=O)(=O)N1C[S+]([O-])c2cc(C)c(-c3ccccc3F)nc21 (stereo not shown) [Example I-127]	–	90	90	–	90	–	90	90	–	pest or weed control at 80 g/ha [9]: 80%; pest or weed control at 1280 g/ha (Veronica persica (VERPE) [2]): 90%; pest or weed control at 320 g/ha [6]: 90%
Fc1ccccc1-c1nc2c(cc1Br)SCN2 [Example I-001, 6-bromo-5-(2-fluorophenyl)-2,3-dihydro[1,3]thiazolo[4,5-b]pyridine]	–	–	–	–	–	–	–	–	20	pest or weed control at 80 g/ha (Veronica persica (VERPE) [4]; application rate 80 g/ha): 80%; pest or weed control at 320 g/ha [6]: 90%
Cc1cc2c(nc1-c1ccccc1Cl)NCS2 [Example I-049, 5-(2-chlorophenyl)-6-methyl-2,3-dihydro[1,3]thiazolo[4,5-b]pyridine]	20	–	–	–	80	80	–	–	–	–
